In patent publication US20250241892A1, “5-METHOXY-N,N-[…][…] THE TREATMENT OF PSYCHOMOTOR RETARDATION” (GH RESEARCH IRELAND LIMITED, priority 2022, published 2025):

Tested on: patients with postpartum depression (PPD)
Test: Clinical trial of inhaled 5-MeO-DMT in postpartum depression
Conditions: 1 patient
Experimental: The single-arm, open-label clinical trial will involve 15 adult female patients with clinically diagnosed postpartum depression (PPD).
The second dose (12 mg) will only be administered if: • a. A peak experience (total score of ⋅75) has not been achieved following the 6 mg dose, and • b. The 6 mg dose was safe and well-tolerated according to the investigator, • c. Any psychoactive effects (PsE) of the prior dose have subsided, and • d. Pre-dose vital parameters and forced expiratory volume in one second (FEV1) are in normal range, or if outside of the normal range, are not clinically significant according to the investigator. • 3. Similarly, a third dose (18 mg) will only be administered if: • a. A peak experience (total score of ⋅75) has not been achieved following the 12 mg dose, and • b. The 12 mg dose was safe and well-tolerated according to the investigator, and • c. Any PsE of the prior dose have subsided, and • d. Pre-dose vital parameters and forced expiratory volume in one second (FEV1) are in normal range, or if outside of the normal range, are not clinically significant according to the investigator.
The patients will be assessed for a peak psychedelic experience (based on a patient-scored visual analogue scale, the PE scale), sedation, and other endpoints after dosing. Follow-up visits are planned for Day 1, and Day 7 after the dosing day.
The following criteria must be met by all patients considered for clinical trial participation: • 1. Is female and in the age range between 18 and 45 years (inclusive) at screening. • 2. Has a body mass index (BMI) in the range of 18.5 and 35 kg/m^2 (inclusive) at screening. • 3. Meets the trial criteria for PPD as assessed by a trial psychiatrist or registered psychologist: • a. Diagnosis of Major Depressive Disorder without psychotic features, confirmed by the Mini-International Neuropsychiatric Interview (MINI), with peri-partum onset that began no earlier than gestation and no later than the first 4 weeks postpartum. • b. Has a Montgomery-Åsberg Depression Rating Scale (MADRS) total score of equal to or greater than 28 at screening and pre-dose on Day 0. • 6. […] Patients must have a negative pregnancy test at screening and on the pre-test day (Day −1). • 5. Is willing to delay start of other antidepressant or anxiety medication until after the end of the trial at Day 7 and agrees to keep any psychotherapy unchanged during the trial.
A potential patient who meets any of the following key exclusion criteria will be excluded from participation in this trial: • 1. Has, based on history, psychiatric assessment, and evaluation of the MINI, a current or prior diagnosis of bipolar disorder, a manic or hypomanic episode, a psychotic disorder, Major Depressive Disorder (MDD) or other mood disorder with psychotic features, obsessive compulsive disorder, post-traumatic stress disorder (PTSD), autism spectrum disorder, borderline personality disorder, schizophrenia, delusional disorder, paranoid personality disorder, schizoaffective disorder, clinically significant intellectual disability, or any other psychiatric comorbidity that renders the patient unsuitable for the trial according to the investigator's judgment. • 2. Has one or more first or second degree relatives with a current or previously diagnosed bipolar disorder, psychotic disorder or other mood disorder (including MDD) with psychotic features. • 3. Is in the judgement of a trial psychiatrist or registered psychologist, at significant risk for suicide based on history, psychiatric assessment, and evaluation of suicidal ideation and suicidal behaviour based on the Columbia-Suicide Severity Rating Scale (C-SSRS). • 4. Has taken anti-depressive medication within 14 days or 5 half-lives (whichever is longer) prior to dosing (exception: within the last 5 weeks in the case of fluoxetine). • 5.

## COc1ccc2[nH]cc(CCN(C)C)c2c1 [5-MeO-DMT]
  ECG (3 hours), safety laboratory analyses (7 days), CADSS (3 hours, 1 day, 7 days): unremarkable
  Reported adverse events (cramping left abdominal pain and headache, Day 0): mild, short-lasting and resolved spontaneously
  Standard criteria for MADRS remission (MADRS total score equal or less than 10): fulfilled
  Standard criteria for MADRS response (at least 50% improvement from baseline): fulfilled
  Tolerability of the inhalation procedure: well tolerated with no inhalation-related adverse events
2 hr vs baseline
  MADRS Apparent sadness improvement: 5
  MADRS Concentration Difficulties improvement: 0
  MADRS Inability to Feel improvement: 3
  MADRS Inner Tension improvement: 5
  MADRS Lassitude improvement: 3
  MADRS Pessimistic Thoughts improvement: 4
  MADRS Reduced Sleep improvement: 0
  MADRS Reduced appetite improvement: 0
  MADRS Reported sadness improvement: 4
  MADRS Suicidal Thoughts improvement: 0
2 hr, baseline 0
  MADRS Concentration Difficulties score: 0
  MADRS Reduced appetite score: 0
  MADRS Suicidal Thoughts score: 0
2 hr, baseline 3
  MADRS Inability to Feel score: 0
  MADRS Lassitude score: 0
2 hr, baseline 4
  MADRS Pessimistic Thoughts score: 0
  MADRS Reported sadness score: 0
2 hr, baseline 5
  MADRS Apparent sadness score: 0
  MADRS Inner Tension score: 0
  MADRS Reduced Sleep score: 5
Day 1, baseline 0
  MADRS Concentration Difficulties score: 0
  MADRS Reduced appetite score: 0
  MADRS Suicidal Thoughts score: 0
Day 1, baseline 1
  BPRS Blunted affect score: 1
  BPRS Conceptual disorganization score: 1
  BPRS Disorientation score: 1
  BPRS Grandiosity score: 1
  BPRS Hallucinatory behaviour score: 1
  BPRS Hostility score: 1
  BPRS Mannerisms and Posturing score: 1
  BPRS Motor retardation score: 1
  BPRS Suspiciousness score: 1
  BPRS Uncooperativeness score: 1
  BPRS Unusual Thought Content score: 1
Day 1, baseline 2
  BPRS Excitement score: 1
Day 1, baseline 3
  MADRS Inability to Feel score: 0
  MADRS Lassitude score: 0
Day 1, baseline 4
  MADRS Pessimistic Thoughts score: 0
  MADRS Reported sadness score: 0
Day 1, baseline 5
  BPRS Emotional withdrawal score: 1
  MADRS Apparent sadness score: 0
  MADRS Inner Tension score: 0
  MADRS Reduced Sleep score: 0
Day 1, baseline 6
  BPRS Depressive Mood score: 1
  BPRS Guilt feelings score: 1
  BPRS Somatic Concern score: 1
  BPRS Tension score: 1
Day 1, baseline 7
  BPRS Anxiety score: 1
Day 1 vs baseline
  BPRS Anxiety improvement: 6
  BPRS Blunted affect improvement: 0
  BPRS Conceptual disorganization improvement: 0
  BPRS Depressive Mood improvement: 5
  BPRS Disorientation improvement: 0
  BPRS Emotional withdrawal improvement: 4
  BPRS Excitement improvement: 1
  BPRS Grandiosity improvement: 0
  BPRS Guilt feelings improvement: 5
  BPRS Hallucinatory behaviour improvement: 0
  BPRS Hostility improvement: 0
  BPRS Mannerisms and Posturing improvement: 0
  BPRS Motor retardation improvement: 0
  BPRS Somatic Concern improvement: 5
  BPRS Suspiciousness improvement: 0
  BPRS Tension improvement: 5
  BPRS Uncooperativeness improvement: 0
  BPRS Unusual Thought Content improvement: 0
  MADRS Apparent sadness improvement: 5
  MADRS Concentration Difficulties improvement: 0
  MADRS Inability to Feel improvement: 3
  MADRS Inner Tension improvement: 5
  MADRS Lassitude improvement: 3
  MADRS Pessimistic Thoughts improvement: 4
  MADRS Reduced Sleep improvement: 5
  MADRS Reduced appetite improvement: 0
  MADRS Reported sadness improvement: 4
  MADRS Suicidal Thoughts improvement: 0
Day 7, Day 0 score 0
  BIMF item 2 (I feel rested) score: 2
  BIMF item 19 (getting better at taking care of my baby) score: 1
Day 7, Day 0 score 2
  BIMF item 18 (Anxiety or worry often interferes with my mothering ability) score: 5
Day 7, Day 0 score 3
  BIMF item 16 (I worry about how other people judge me) score: 5
Day 7, Day 0 score 4
  BIMF item 13 (taking good care of my physical needs) score: 5
Day 7, Day 0 score 5
  BIMF item 4 (My baby and I understand each other) score: 5
  BIMF item 5 (able to relax and enjoy time with my baby) score: 6
  BIMF item 9 (getting enough encouragement from other people) score: 6
  BIMF item 10 (I trust my own feelings (instincts)) score: 6
  BIMF item 11 (a little time each week to do something for myself) score: 6
  BIMF item 15 (My baby and I are getting into a routine) score: 6
  BIMF item 17 (able to take care of my baby and my other responsibilities) score: 5
Day 7, Day 0 score 6
  BIMF item 1 (I am a good mother) score: 6
  BIMF item 3 (comfortable with the way I've chosen to feed my baby) score: 6
  BIMF item 6 (people in my life that I can trust to care for my baby) score: 6
  BIMF item 8 (getting enough adult interaction) score: 6
  BIMF item 12 (taking good care of my baby's physical needs) score: 6
  BIMF item 14 (good decisions about my baby's health and well being) score: 6
  BIMF item 20 (satisfied with the job I am doing as a new mother) score: 5
Day 7, baseline 0
  MADRS Concentration Difficulties score: 0
  MADRS Reduced appetite score: 0
  MADRS Suicidal Thoughts score: 0
Day 7, baseline 1
  BPRS Blunted affect score: 1
  BPRS Conceptual disorganization score: 1
  BPRS Disorientation score: 1
  BPRS Grandiosity score: 1
  BPRS Hallucinatory behaviour score: 1
  BPRS Hostility score: 1
  BPRS Mannerisms and Posturing score: 1
  BPRS Motor retardation score: 1
  BPRS Suspiciousness score: 1
  BPRS Uncooperativeness score: 1
  BPRS Unusual Thought Content score: 1
Day 7, baseline 2
  BPRS Excitement score: 1
Day 7, baseline 3
  MADRS Inability to Feel score: 0
  MADRS Lassitude score: 0
Day 7, baseline 4
  MADRS Pessimistic Thoughts score: 0
  MADRS Reported sadness score: 0
Day 7, baseline 5
  BPRS Emotional withdrawal score: 1
  MADRS Apparent sadness score: 0
  MADRS Inner Tension score: 1
  MADRS Reduced Sleep score: 0
Day 7, baseline 6
  BPRS Depressive Mood score: 1
  BPRS Guilt feelings score: 1
  BPRS Somatic Concern score: 1
  BPRS Tension score: 1
Day 7, baseline 7
  BPRS Anxiety score: 1
Day 7 vs Day 0
  BIMF functional domain Adjustment Δ (Day 7): 1
  BIMF functional domain Infant Care Δ (Day 7): 0
  BIMF functional domain Management Δ (Day 7): 5
  BIMF functional domain Mother-Child Interaction Δ (Day 7): 2
  BIMF functional domain Psychological Well-being Δ (Day 7): 9
  BIMF functional domain Self Care Δ (Day 7): 4
  BIMF functional domain Social Support Δ (Day 7): 1
  BIMF item 1 (I am a good mother) Δ (Day 7): 0
  BIMF item 2 (I feel rested) Δ (Day 7): 2
  BIMF item 3 (comfortable with the way I've chosen to feed my baby) Δ (Day 7): 0
  BIMF item 4 (My baby and I understand each other) Δ (Day 7): 0
  BIMF item 5 (able to relax and enjoy time with my baby) Δ (Day 7): 1
  BIMF item 6 (people in my life that I can trust to care for my baby) Δ (Day 7): 0
  BIMF item 8 (getting enough adult interaction) Δ (Day 7): 0
  BIMF item 9 (getting enough encouragement from other people) Δ (Day 7): 1
  BIMF item 10 (I trust my own feelings (instincts)) Δ (Day 7): 1
  BIMF item 11 (a little time each week to do something for myself) Δ (Day 7): 1
  BIMF item 12 (taking good care of my baby's physical needs) Δ (Day 7): 0
  BIMF item 13 (taking good care of my physical needs) Δ (Day 7): 1
  BIMF item 14 (good decisions about my baby's health and well being) Δ (Day 7): 0
  BIMF item 15 (My baby and I are getting into a routine) Δ (Day 7): 1
  BIMF item 16 (I worry about how other people judge me) Δ (Day 7): 2
  BIMF item 17 (able to take care of my baby and my other responsibilities) Δ (Day 7): 0
  BIMF item 18 (Anxiety or worry often interferes with my mothering ability) Δ (Day 7): 3
  BIMF item 19 (getting better at taking care of my baby) Δ (Day 7): 1
  BIMF item 20 (satisfied with the job I am doing as a new mother) Δ (Day 7): −1
Day 7 vs baseline
  BPRS Anxiety improvement: 6
  BPRS Blunted affect improvement: 0
  BPRS Conceptual disorganization improvement: 0
  BPRS Depressive Mood improvement: 5
  BPRS Disorientation improvement: 0
  BPRS Emotional withdrawal improvement: 4
  BPRS Excitement improvement: 1
  BPRS Grandiosity improvement: 0
  BPRS Guilt feelings improvement: 5
  BPRS Hallucinatory behaviour improvement: 0
  BPRS Hostility improvement: 0
  BPRS Mannerisms and Posturing improvement: 0
  BPRS Motor retardation improvement: 0
  BPRS Somatic Concern improvement: 5
  BPRS Suspiciousness improvement: 0
  BPRS Tension improvement: 5
  BPRS Uncooperativeness improvement: 0
  BPRS Unusual Thought Content improvement: 0
  MADRS Apparent sadness improvement: 5
  MADRS Concentration Difficulties improvement: 0
  MADRS Inability to Feel improvement: 3
  MADRS Inner Tension improvement: 4
  MADRS Lassitude improvement: 3
  MADRS Pessimistic Thoughts improvement: 4
  MADRS Reduced Sleep improvement: 5
  MADRS Reduced appetite improvement: 0
  MADRS Reported sadness improvement: 4
  MADRS Suicidal Thoughts improvement: 0
Discharge vs baseline
  BPRS Anxiety improvement: 6
  BPRS Blunted affect improvement: 0
  BPRS Conceptual disorganization improvement: 0
  BPRS Depressive Mood improvement: 5
  BPRS Disorientation improvement: 0
  BPRS Emotional withdrawal improvement: 4
  BPRS Excitement improvement: 1
  BPRS Grandiosity improvement: 0
  BPRS Guilt feelings improvement: 5
  BPRS Hallucinatory behaviour improvement: 0
  BPRS Hostility improvement: 0
  BPRS Mannerisms and Posturing improvement: 0
  BPRS Motor retardation improvement: 0
  BPRS Somatic Concern improvement: 5
  BPRS Suspiciousness improvement: 0
  BPRS Uncooperativeness improvement: 0
  BPRS Unusual Thought Content improvement: 0
Discharge, baseline 1
  BPRS Blunted affect score: 1
  BPRS Conceptual disorganization score: 1
  BPRS Disorientation score: 1
  BPRS Grandiosity score: 1
  BPRS Hallucinatory behaviour score: 1
  BPRS Hostility score: 1
  BPRS Mannerisms and Posturing score: 1
  BPRS Motor retardation score: 1
  BPRS Suspiciousness score: 1
  BPRS Uncooperativeness score: 1
  BPRS Unusual Thought Content score: 1
Discharge, baseline 2
  BPRS Excitement score: 1
Discharge, baseline 5
  BPRS Emotional withdrawal score: 1
Discharge, baseline 6
  BPRS Depressive Mood score: 1
  BPRS Guilt feelings score: 1
  BPRS Somatic Concern score: 1
  BPRS Tension score: 1
Discharge, baseline 7
  BPRS Anxiety score: 1
Shortly after administration
  Changes in vital parameters: temporary, clinically non-relevant increase in heart rate and blood pressure
